Laboratory results: patent US10259782B2, “ROR gamma (RORγ) modulators” (LEAD PHARMA HOLDING B.V., priority 2015, dated 2019)

Biological target: T1, RORγ (Homo sapiens, UniProt P51449)
T1 construct: expressed in transfected cells; host or cells: 293FT cells (Invitrogen), expression vector pFN26A (Promega)
T1 sequence (P51449 269-508 limits assumed): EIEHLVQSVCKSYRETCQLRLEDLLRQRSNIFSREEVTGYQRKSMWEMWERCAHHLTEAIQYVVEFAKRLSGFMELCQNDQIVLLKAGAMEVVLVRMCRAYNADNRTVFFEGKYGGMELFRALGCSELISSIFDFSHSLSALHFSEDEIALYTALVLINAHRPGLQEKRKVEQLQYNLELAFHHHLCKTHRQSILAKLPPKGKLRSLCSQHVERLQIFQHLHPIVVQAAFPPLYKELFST
Assay: RORγ GAL4 reporter gene assay (luciferase readout, 293FT cells)
Assay type: cell-based
Conditions: inhibition of RORγ (GAL4-RORγ-LBD) in transfected 293FT cells, luciferase signal, overnight incubation; read-out: mean pIC50 (converted)
Description: RORγ GAL4 Reporter Gene Assay
Example inhibitors 1-47 were tested for their ability to inhibit RORγ activity in a RORγ GAL4 reporter gene assay. The assay procedure and results are described below.
RORγ GAL4 Reporter Gene Assay Description
A GAL4 one-hybrid reporter system employing luciferase readout was established to determine inhibition of RORγ in 293FT cells. The RORγ ligand-binding domain (LBD) was fused to the yeast GAL4 DNA binding domain (DBD) and placed under the control of the human cytomegalovirus (CMV) immediate early promoter, using expression vector pFN26A (Promega) and standard recombinant DNA cloning methods. To serve as a control in the assay, a similar vector was generated in which the GAL4-DBD was fused to Herpes simplex virus protein 16 (VP16), a constitutive transcriptional activator.
To monitor the inhibitory effect of compounds on RORγ, a transcriptional reporter construct was used. The pGL4.35 vector (Promega) contains nine copies of the GAL4 Upstream Activator Sequence (UAS). This sequence drives the transcription of the luciferase reporter gene luc2P in response to binding of a fusion protein containing the GAL4 DNA binding domain, as for example expressed by the GAL4-RORγ-LBD and GAL4-VP16 expression vectors described above. To allow a GAL4 fusion protein to drive the expression of the luciferase reporter, the pGL4.35 expression vector and the appropriate GAL4 fusion protein expression vector were bulk transfected in the 293FT cells using standard transfection techniques.
The day after transfection, cells were plated into 96 well plates, test compound was added and the plates were incubated overnight. Subsequently, the firefly luciferase activity was quantified using luciferase detection reagent and luminescence readout.
Detailed Assay Description
293FT cells (Invitrogen) were transfected with a GAL4 fusion protein expression vector (as described above) and the transcriptional reporter construct (pGL4.35, Promega). 60 μL of TransIT-293 transfection reagent (Mirus Bio) was added drop wise to 1500 μl Opti-MEM I Reduced Serum Medium (Invitrogen) and incubated at room temperature (RT) for 5 to 20 minutes. 1500 μL of this reagent mixture was added to 5 μg of GAL4 fusion protein expression vector and 5 μg of the transcriptional reporter construct, and incubated at RT for 20 minutes.
To harvest 293FT cells from a T75 flask, first the culture medium was taken off the cells. Subsequently, the cells were washed with Phosphate Buffered Saline (PBS) (Lonza), after which the PBS was removed. To dissociate the cells, 1 ml of TrypLE Express (Invitrogen) was added to the flask, followed by incubation at RT until the cells visually started to detach. Cells were collected in 5 mL of assay medium (DMEM culture medium (Lonza), 10% dialyzed FBS (Invitrogen) and Pen/Strep (Lonza)) to achieve a single cell suspension. 10×10^6 cells were spun down and re-suspended in 10 mL of assay medium. Subsequently, the cell suspension was added to the transfection mix tube, and then transferred as a whole to a T75 flask (Greiner), followed by overnight (16-24 hours) incubation at 37° C. and 5% CO2.
For compound screening, the cells were harvested (as described above) and counted. 13×10^6 cells were spun down, the supernatant was aspirated and the cells were re-suspended in 17.3 mL of assay medium obtaining a cell suspension of 0.75×10^6 cells/mL. 80 μL of cell suspension (60,000 cells) was plated per well into a white, flat bottom, tissue culture treated, 96 well screening plates (Greiner).
Test compounds were diluted, starting from a 10 mM dimethylsulf oxide (DMSO) stock solution, to serial dilutions in DMSO at 500× the final test concentration. Subsequently, these solutions were diluted to 5× the final test concentration in two 10-fold-dilution steps in assay medium. The final DMSO concentration of the 5× test compound solution was 1%. […]

Row | SMILES | IC50
1 | O=C(Cc1ccc(S(=O)(=O)CC2CC2)cc1)Nc1cc(-c2ccccc2)c(C(=O)c2ccccc2)s1 [Example 27, N-(5-benzoyl-4-phenylthiophen-2-yl)-2-(4-cyclopropylmethanesulfonylphenyl)acetamide] | ≤ 100 nM
2 | O=C(Cc1ccc(S(=O)(=O)CC2CC2)cc1)Nc1ccc(-c2ccccc2OC(F)(F)F)c(Cl)c1 [Example 28, N-{3-chloro-4-[2-(trifluoromethoxy)phenyl]phenyl}-2-(4-cyclopropylmethanesulfonylphenyl)acetamide] | ≤ 100 nM
3 | Cc1cc(NC(=O)Cc2ccc(S(=O)(=O)CC3CC3)cc2)ccc1-c1ccccc1OC(F)(F)F [Example 29, 2-(4-cyclopropylmethanesulfonylphenyl)-N-{3-methyl-4-[2-(trifluoromethoxy)phenyl]phenyl}acetamide] | ≤ 100 nM
4 | O=C(Cc1ccc(S(=O)(=O)CC2CC2)cc1)Nc1cc(Cl)c(-c2ccccc2OC(F)(F)F)c(Cl)c1 [Example 30, 2-(4-cyclopropylmethanesulfonylphenyl)-N-{3,5-dichloro-4-[2-(trifluoromethoxy)phenyl]phenyl}acetamide] | ≤ 100 nM
5 | Cc1cc(NC(=O)Cc2ccc(S(=O)(=O)CC3CC3)cc2)ncc1-c1ccccc1OC(F)(F)F [Example 31, 2-(4-cyclopropylmethanesulfonylphenyl)-N-{4-methyl-5-[2-(trifluoromethoxy)phenyl]pyridin-2-yl}acetamide] | ≤ 100 nM
6 | Cc1nc(NC(=O)Cc2ccc(S(=O)(=O)CC3CC3)cc2)ccc1-c1ccccc1OC(F)(F)F [Example 32, 2-(4-cyclopropylmethanesulfonylphenyl)-N-{6-methyl-5-[2-(trifluoromethoxy)phenyl]pyridin-2-yl}acetamide] | ≤ 100 nM
7 | O=C(Cc1ccc(S(=O)(=O)NC2CC2)cc1)Nc1ccc(-c2ccccc2OC(F)(F)F)c(Cl)c1 [Example 33, N-{3-chloro-4-[2-(trifluoromethoxy)phenyl]phenyl}-2-[4-(cyclopropylsulfamoyl)phenyl]acetamide] | ≤ 100 nM
8 | Cc1nc(NC(=O)Cc2ccc(S(=O)(=O)NC3CC3)cc2)ccc1-c1ccccc1OC(F)(F)F [Example 34, 2-[4-(cyclopropylsulfamoyl)phenyl]-N-{6-methyl-5-[2-(trifluoromethoxy)phenyl]pyridin-2-yl}acetamide] | ≤ 100 nM
9 | Cc1cc(NC(=O)Cc2ccc(S(=O)(=O)NC3CC3)cc2)ncc1-c1ccccc1OC(F)(F)F [Example 35, 2-[4-(cyclopropylsulfamoyl)phenyl]-N-{4-methyl-5-[2-(trifluoromethoxy)phenyl]pyridin-2-yl}acetamide] | ≤ 1000 nM
10 | Cc1cc(NC(=O)Cc2ccc(S(=O)(=O)NC3CC3)cc2)ccc1-c1ccccc1OC(F)(F)F [Example 36, 2-[4-(cyclopropylsulfamoyl)phenyl]-N-{3-methyl-4-[2-(trifluoromethoxy)phenyl]phenyl}acetamide] | ≤ 100 nM

Results, then the molecule that gave them:

Row | IC50 | SMILES
11 | ≤ 100 nM | Cc1cc(NC(=O)Cc2ccc(S(=O)(=O)CC3CC3)cc2)nc(C)c1-c1ccccc1OC(F)(F)F [Example 37, 2-(4-cyclopropylmethanesulfonylphenyl)-N-{4,6-dimethyl-5-[2-(trifluoromethoxy)phenyl]pyridin-2-yl}acetamide]
12 | ≤ 1000 nM | Cc1ccn(-c2ccc(NC(=O)Cc3ccc(S(=O)(=O)CC4CC4)cc3)cc2)n1 [Example 40, 2-(4-cyclopropylmethanesulfonylphenyl)-N-[4-(3-methyl-1H-pyrazol-1-yl)phenyl]acetamide]
13 | ≤ 1000 nM | Cc1ccnn1-c1ccc(NC(=O)Cc2ccc(S(=O)(=O)CC3CC3)cc2)cc1 [Example 41, 2-(4-cyclopropylmethanesulfonylphenyl)-N-[4-(5-methyl-1H-pyrazol-1-yl)phenyl]acetamide]
14 | ≤ 1000 nM | Cc1cnn(-c2ccc(NC(=O)Cc3ccc(S(=O)(=O)CC4CC4)cc3)cc2)c1 [Example 42, 2-(4-cyclopropylmethanesulfonylphenyl)-N-[4-(4-methyl-1H-pyrazol-1-yl)phenyl]acetamide]
15 | ≤ 1000 nM | O=C(Cc1ccc(S(=O)(=O)CC2CC2)cc1)Nc1ccc(-c2cnco2)cc1 [Example 43, 2-(4-cyclopropylmethanesulfonylphenyl)-N-[4-(1,3-oxazol-5-yl)phenyl]acetamide]
16 | ≤ 1000 nM | O=C(Cc1ccc(S(=O)(=O)CC2CC2)cc1)Nc1ccc(-n2cccn2)cc1 [Example 44, 2-(4-cyclopropylmethanesulfonylphenyl)-N-[4-(1H-pyrazol-1-yl)phenyl]acetamide]
17 | ≤ 1000 nM | O=C(Cc1ccc(S(=O)(=O)CC2CC2)cc1)Nc1ccc(-n2cncn2)cc1 [Example 46, 2-(4-cyclopropylmethanesulfonylphenyl)-N-[4-(1H-1,2,4-triazol-1-yl)phenyl]acetamide]
18 | ≤ 1000 nM | O=C(Cc1ccc(S(=O)(=O)CC2CC2)cc1)Nc1ccc(-c2ncon2)cc1 [Example 47, 2-(4-cyclopropylmethanesulfonylphenyl)-N-[4-(1,2,4-oxadiazol-3-yl)phenyl]acetamide]
